Test results reported in ChEMBL document CHEMBL5050844 (2019).

Legend:
Assay type in all cases: functional, T cell line
[1] = Induction of anti-CD3/CD28 antibodies-stimulated human T cell activation at 1 uM assessed fold increase in IL-2 secretion measured by ELISA assay
[2] = Induction of anti-CD3 antibodies-stimulated human T cell activation at 8 uM assessed fold increase in IL-2 secretion measured by ELISA assay; also: reference of the scale not given here
[3] = Induction of anti-CD3/CD28 antibodies-stimulated human T cell activation at 0.3 uM assessed fold increase in IL-2 secretion measured by ELISA assay
[4] = Induction of anti-CD3 antibodies-stimulated human T cell activation at 8 uM assessed fold increase in CD25 expression measured by ELISA assay; also: reference of the scale not given here
[5] = Induction of anti-CD3/CD28 antibodies-stimulated human T cell activation at 4 uM assessed fold increase in CD25 expression measured by ELISA assay
[6] = Induction of anti-CD3 antibodies-stimulated human T cell activation at 1 uM assessed fold increase in CD25 expression measured by ELISA assay; also: reference of the scale not given here
[7] = Induction of anti-CD3 antibodies-stimulated human T cell activation at 1 uM assessed fold increase in IL-2 secretion measured by ELISA assay; also: reference of the scale not given here
[8] = Induction of anti-CD3/CD28 antibodies-stimulated human T cell activation at 0.3 uM assessed fold increase in CD25 expression measured by ELISA assay
[9] = Induction of anti-CD3/CD28 antibodies-stimulated human T cell activation at 1 uM assessed fold increase in CD25 expression measured by ELISA assay
[10] = Induction of anti-CD3/CD28 antibodies-stimulated human T cell activation at 4 uM assessed fold increase in IL-2 secretion measured by ELISA assay

| Compound | fold change (FC) [1] | fold change (FC) [2] | fold change (FC) [3] | fold change (FC) [4] | fold change (FC) [5] | fold change (FC) [6] | fold change (FC) [7] | fold change (FC) [8] | fold change (FC) [9] | fold change (FC) [10] |
| --- | --- | --- | --- | --- | --- | --- | --- | --- | --- | --- |
| C[C@H](Sc1nncn1C)c1cccc(NC(=O)c2cc(C(C)(C)O)cc(C(F)(F)F)n2)c1 | <=1 | <=0.05 | <=1 | >=1.001 | 1.01 | 0.601 | <=0.05 | 1.01 | 1.01 | 1.01 |
| Cc1cc(C(=O)Nc2cccc([C@H](C)Sc3nncn3C)c2)nc2ccccc12 | 1.01 | 0.101 | 1.01 | 0.801 | 1.01 | 0.601 | 0.051 | 1.01 | 1.01 | 2.51 |
| Cn1cnnc1C(F)(F)[C@](C)(F)c1cccc(N2Cc3c(cc(-c4cncc(F)c4)cc3C(F)(F)F)C2=O)c1 | 2.51 | 0.151 | 1.01 | 0.801 | 1.01 | 0.601 | 0.101 | <=1 | 1.01 | 2.51 |
| C[C@H](Sc1nncn1C)c1cccc(NC(=O)c2cc3c(Cl)cccc3[nH]2)c1 | 1.01 | >=0.201 | 1.01 | 0.801 | 1.01 | 0.601 | <=0.05 | <=1 | 1.01 | 2.51 |
| C[C@H](Sc1nncn1C)c1ccnc(N2Cc3c(cccc3C(F)(F)F)C2=O)c1 | 2.51 | <=0.05 | 2.51 | <=0.6 | <=1 | <=0.6 | <=0.05 | <=1 | <=1 | 2.51 |
| CNC(=O)COc1ccc2cnc(C(=O)Nc3cccc([C@H](C)Sc4nncn4C)c3)cc2c1 | 1.01 | <=0.05 | <=1 | 0.801 | 1.01 | <=0.6 | <=0.05 | 1.01 | 1.01 | 1.01 |
| Cn1cnnc1C(F)(F)[C@@](C)(F)c1cccc(N2Cc3c(cc(CN4CC[C@H](F)C4)cc3C(F)(F)F)C2=O)c1 | <=1 | 0.051 | <=1 | 0.801 | 1.01 | 0.601 | 0.051 | <=1 | <=1 | 1.01 |
| C[C@H](Sc1nncn1C)c1cccc(NC(=O)c2cc3ccccc3cn2)c1 | 1.01 | 0.051 | 1.01 | <=0.6 | 1.01 | <=0.6 | <=0.05 | 1.01 | 1.01 | 1.01 |
| Cc1nc(C(=O)Nc2cccc([C@H](C)Sc3nncn3C)c2)ccc1Cl | 5 | 0.051 | 2.51 | 0.801 | 1.01 | <=0.6 | <=0.05 | <=1 | 1.01 | >=7.5 |
| C[C@H](Sc1nncn1C)c1cccc(NC(=O)c2cc(C3(O)COC3)cc(C(F)(F)F)n2)c1 | <=1 | <=0.05 | <=1 | 0.601 | 1.01 | <=0.6 | <=0.05 | <=1 | 1.01 | <=1 |
| Cc1c[nH]nc1C[C@H](C)c1cccc(N2Cc3c(cccc3C(F)(F)F)C2=O)c1 (single isomer, unassigned) | 1.01 | 0.151 | 1.01 | 0.801 | 1.01 | 0.601 | 0.101 | 1.01 | 1.01 | 1.01 |
| CC(C)c1cccc(C(=O)Nc2cccc([C@H](C)Sc3nncn3C)c2)n1 | 2.51 | <=0.05 | 2.51 | 0.801 | 1.01 | <=0.6 | <=0.05 | 1.01 | 1.01 | >=7.5 |
| C[C@H](Cc1nncn1C)c1cccc(NC(=O)c2cn3ccnc3cn2)c1 | 1.01 | 0.101 | 1.01 | 0.801 | 1.01 | 0.601 | 0.051 | <=1 | 1.01 | 1.01 |
| Cc1ccnn1CC(C)c1cccc(NC(=O)c2cccc(C(F)(F)F)n2)c1 (stereo not given) | <=1 | 0.051 | <=1 | <=0.6 | 1.51 | <=0.6 | 0.051 | 1.51 | 1.31 | 1.01 |
| C[C@H](Cc1nncn1C)c1cccc(NC(=O)c2cc(S(C)(=O)=O)cc(C3CC3)n2)c1 | 1.01 | >=0.201 | 1.01 | >=1.001 | <=1 | 0.801 | 0.101 | 1.01 | 1.01 | 1.01 |
| C[C@H](Cc1nncn1C)c1cc(OC2COC2)nc(N2Cc3c(cccc3C(F)(F)F)C2=O)c1 | 1.01 | >=0.201 | 1.01 | >=1.001 | 1.31 | 0.601 | 0.101 | 1.01 | 1.01 | 1.01 |
| C[C@H](Sc1nncn1C)c1cc(F)cc(N2Cc3c(cccc3C(F)(F)F)C2=O)c1 | 1.01 | <=0.05 | <=1 | 0.801 | 1.01 | <=0.6 | <=0.05 | 1.01 | 1.01 | <=1 |
